Holding throughout (assay type): cell-based
Data set [1] in a line: MTT cell viability assay, PH5CH cells, 72 h. Conditions: human, immortalized normal hepatocytes PH5CH, 0.016-50.0 μM tested. The text has this: (§1) Huh-7 cells and derived from hepatocellular carcinoma cells, and were donated by Dr. Xuanyong Lu, (Drexel University College of Medicine, Doylestown, Pa.). THLE-2 were purchased from American Type Culture Collection (Manassas, Va.). PH5CH were donated by Dr. Masayuki Noguchi (University of Tsukuba, Ibaraki, Japan). THLE-2 and PH5CH have been immortalized through stable transfection of the SV40 large T antigen in normal hepatocytes, and are thus cell lines that are representative of normal hepatocytes rather than HCC cells. THLE2 have been confirmed to not form tumors in athymic mice. All cell lines were cultured and maintained in 5% CO2 at 37° C. Huh-7 were maintained in the culture media DMEM/F12 (Dulbecco's Modified Eagle Medium) with 10% Fetal bovine serum (FBS), 100 μg/mL penicillin, 100 units/mL streptomycin, and 50 μg/mL normocin. THLE-2 and PH5CH were maintained in the culture media Brochial Epithelial Growth Media (BEGM) with 10% FBS, 100 μg/mL penicillin, 100 units/mL streptomycin, with the following additives form the prepackaged kit: Bovine pituitary extract (BPE), insulin, hydrocortisone, retinoic acid, transferrin, triiodothyronine, supplemented with 5 ng/ml human epidermal growth factor and 70 ng/ml phosphoethanolamine (Lonza Walkersville Inc., Walkersville, Md.).
(§2) Huh7 cells were plated on 96-well plates at 2.0×10^4 cells per well to permit grow in the presence of compounds of the disclosure. Compounds of the disclosure were prediluted and transferred to cell plates by automated liquid handling. Cells were incubated with compounds of the disclosure for 72 hours, after which culture growth and viability were assessed by addition of 50 μg/mL 3-(4,5-Dimethyl-2-thiazolyl)-2,5-diphenyl-2H-tetrazolium bromide (MTT) incubation for 4 hours at 37° C. Solubilization buffer (0.01M HCl, 10% SDS) was added followed by incubation at 37° C. overnight. Absorbance was measured at 570 nm (reference 630 nm). Compound of the disclosure were tested in Huh7, THLE-2 and PH5CH, over eight-point dilutions in half-log steps, testing 50.0, 16.6, 5.0, 1.66, 0.5, 0.166, 0.05, and 0.016 μM in 0.5% DMSO, with each concentration in duplicate wells. […] Each compound was tested from 2 to 7 times in separate assay trials.
(§3) Selectivity of toxicity in HCC-derived cells over normal liver-derived cells is important for the purposes of developing a therapy that specifically targets the cancer with low toxicity for […]. The Selective Index (SI) is the ratio of CC50 in normal cells (THLE2 or PH5CH) over the CC50 in the liver cancer derived cells; thus, the higher the number, the lower the potential toxicity at an efficacious dose.

Data set [2] in a line: MTT cell viability assay, THLE2 cells, 72 h. As to conditions: human, immortalized normal hepatocytes THLE2, 72 hours, 0.016-50.0 μM tested.
From the text: as §1, with “THLE2 have been confirmed to not form tumors in athymic mice.” left out
as §2, §3

The test system of the next data set is Huh7 cells. Put plainly: MTT cell viability assay, Huh7 cells, 72 h. Conditions: Homo sapiens, read-out: Huh7 CC50.
From the text: as §1, §2
(Tetrazolium dyes change colour on reduction, which living cells bring about.)

[3] abbreviates: Huh-7, hepatocellular carcinoma derived Huh7 cells, 72 hours, MTT, 0.016-50.0 μM tested.

Read-outs that look alike come from different tables or passages of the source. A value given as a limit tells only on which side of the number the result lay.

One may read the CC50 as the concentration giving 50% cytotoxicity. Turning to `c1ccc(-c2csc(Nc3ncccn3)n2)nc1` [Entry 1], the figures for the CC50 at 72 h in data set [1] and in data set [2] were at least 50 µM and 40 µM, respectively. The CC50 with Huh7 cells (setting [3]) was 1.39 µM.
Molecule `c1ccc(-c2csc(Nc3ncccn3)n2)cc1` [Entry 3] had a CC50 at 72 h in data set [2] of 9.16 µM. In the data set on Huh7 cells (setting [3]), the half-maximal cytotoxic concentration (CC50) is 6.43 µM.
In the same order, the values of `c1cnc(Nc2nc(-c3cccnc3)cs2)nc1` [Entry 4] are 8.66 µM and 6.3 µM.
For `c1cnc(Nc2nc(-c3ccncc3)cs2)nc1` [Entry 5], in that order: 48.5 µM and 14.2 µM.
As for `c1ccc(Nc2nc(-c3ccccn3)cs2)cc1` [Entry 6], the CC50 in the data set with Huh7 cells (setting [3]) is 6.53 µM.
On to `c1ccc(Nc2nc(-c3ccccc3)cs2)cc1` [Entry 7], for which the CC50 at 72 h in data set [2] was determined as 21.1 µM. Further, the CC50 in the data set with Huh7 cells (setting [3]) is 10.3 µM.
`Cc1ccnc(-c2csc(Nc3ncccn3)n2)c1` [Entry 8]: the CC50 at 72 h in data set [1] was 34 µM; in data set [2], 14 µM. The CC50 in the data set on Huh7 cells (setting [3]) is 0.563 µM.
Take `Brc1sc(Nc2ncccn2)nc1-c1ccccn1` [Entry 9]: the midpoint of cytotoxicity in data set [2], the CC50 at 72 h, lay at 29.9 µM. Also, the CC50 in the data set with Huh7 cells (setting [3]) amounted to 2.53 µM.
In the case of `Brc1cccc(-c2csc(Nc3ncccn3)n2)n1` [Entry 10], half-maximal cytotoxicity in data set [2] (CC50 at 72 h) was put at 9.75 µM. The CC50 with Huh7 cells (setting [3]) was found to be 7.82 µM.
For `c1ccc(-c2csc(Nc3cnccn3)n2)nc1` [Entry 11], in data set [2], the CC50 at 72 h was 0.539 µM. For the same molecule, the CC50 with Huh7 cells (setting [3]) was determined as 5 µM.
In data set [2], `c1ccc(-c2csc(Nc3ccncn3)n2)nc1` [Entry 12] gave a half-maximal cytotoxic concentration (CC50) at 72 h of 4.47 µM. Also, the CC50 in the data set with Huh7 cells (setting [3]) is 3.05 µM.
For `Clc1cnc(Nc2nc(-c3ccccn3)cs2)nc1` [Entry 13], in that order: at least 50 µM and 35 µM.
As to `Brc1cnc(Nc2nc(-c3ccccn3)cs2)nc1` [Entry 14], the CC50 at 72 h in data set [2] amounted to 41 µM. Further, the CC50 with Huh7 cells (setting [3]) was 31.8 µM.
For the molecule `CN(c1ncccn1)c1nc(-c2ccccn2)cs1` [Entry 15], the values for the CC50 at 72 h in data set [1] and in data set [2] were 49.7 µM and 49.1 µM, respectively. In the data set on Huh7 cells (setting [3]), the CC50 is 5.32 µM.
Regarding `CC(C)N(c1ncccn1)c1nc(-c2ccccn2)cs1` [Entry 16], the CC50 at 72 h in data set [1] and in data set [2] was at least 50 µM in each case. Moreover, the CC50 in the data set with Huh7 cells (Huh-7, 72 h) was 25.7 µM.
As to `OCCN(c1ncccn1)c1nc(-c2ccccn2)cs1` [Entry 17], the CC50 at 72 h in data set [1] and in data set [2] was at least 50 µM each time. In the data set with Huh7 cells (setting [3]), the CC50 was found to be 48.9 µM.
Take `c1ccc(CN(c2ncccn2)c2nc(-c3ccccn3)cs2)cc1` [Entry 18]: the 50% cytotoxic concentration (CC50) at 72 h in data set [1] was 46.9 µM; in data set [2], 49.8 µM. For the same molecule, the CC50 in the data set on Huh7 cells (setting [3]) is at least 50 µM.
For the molecule `CCOC(=O)c1sc(Nc2ncccn2)nc1-c1ccccn1` [Entry 19], the CC50 at 72 h is 44 µM in data set [1] and 38.7 µM in data set [2]. Further, in the data set with Huh7 cells (setting [3]), the CC50 was 0.362 µM.
`OCc1sc(Nc2ncccn2)nc1-c1ccccn1` [Entry 20]: the CC50 at 72 h in data set [1] was 46.9 µM; in data set [2] it was 31.1 µM. Besides, the CC50 with Huh7 cells (setting [3]) stood at 11.3 µM.
In the same order, the values of `CCc1sc(Nc2ncccn2)nc1-c1ccccn1` [Entry 21] are 44.1 µM, 24.7 µM and 15.4 µM.
Take `Cc1sc(Nc2ncccn2)nc1-c1ccccn1` [Entry 22]: the CC50 at 72 h in data set [1] was found to be 42 µM; in data set [2], 42.9 µM. Also, in the data set with Huh7 cells (setting [3]), the CC50 turned out to be 5.92 µM.
In the same order, the values of `Cc1ccc2nc(Nc3nc(-c4ccccn4)cs3)sc2c1` [Entry 23] are 3.97 µM, 3.96 µM and 4.92 µM.
`CC(C)c1sc(Nc2ncccn2)nc1-c1ccccn1` [Entry 24]: the CC50 at 72 h in data set [1] and in data set [2] was at least 50 µM each time. Moreover, the CC50 with Huh7 cells (Huh-7, 72 h) turned out to be 11.3 µM.
In the case of `CCCCCc1sc(Nc2ncccn2)nc1-c1ccccn1` [Entry 25], the CC50 at 72 h in data set [1] and in data set [2] was at least 50 µM each time. Besides, in the data set with Huh7 cells (setting [3]), the CC50 was 25.9 µM.
On to `Cc1cnc(-c2csc(Nc3ncccn3)n2)c(C)c1` [Entry 27], for which the CC50 at 72 h in data set [1] amounted to 47.6 µM; in data set [2], 2.23 µM. For the same molecule, the CC50 in the data set with Huh7 cells (setting [3]) came out at 2.74 µM.
For the molecule `Oc1cccc(-c2csc(Nc3ncccn3)n2)n1` [Entry 28], the CC50 at 72 h in data set [1] and in data set [2] was at least 50 µM in each case. The CC50 in the data set on Huh7 cells (setting [3]) was determined as 46.2 µM.
Consider `Cc1ccnc(Nc2nc(-c3ccccn3)cs2)n1` [Entry 30], for which the CC50 at 72 h in data set [1] and in data set [2] was at least 50 µM in each case. In addition, the CC50 in the data set on Huh7 cells (setting [3]) was at least 50 µM.
Turning to `CCOC(=O)c1sc(Nc2nccc(C)n2)nc1-c1ccccn1` [Entry 31], the CC50 at 72 h in data set [1] and in data set [2] was at least 50 µM throughout. Also, the CC50 in the data set with Huh7 cells (setting [3]) was at most 0.016 µM.
Regarding `c1cnc(Nc2nc(-c3ccc4ccccc4n3)cs2)nc1` [Entry 32], the CC50 at 72 h was at least 50 µM in data set [1] and 8.02 µM in data set [2]. Further, the CC50 in the data set on Huh7 cells (setting [3]) was at least 50 µM.
Take `c1ccc(-c2nc(Nc3ncccn3)sc2C2CCCCC2)nc1` [Entry 33]: the results for the CC50 at 72 h in data set [1] and in data set [2] were at least 50 µM and 3.54 µM, respectively. In addition, the CC50 with Huh7 cells (setting [3]) is at least 50 µM.
On to `FC(F)(F)c1ccnc(Nc2nc(-c3ccccn3)cs2)n1` [Entry 34], for which the results for the CC50 at 72 h in data set [1] and in data set [2] were at least 50 µM and 37.8 µM, respectively. Further, the CC50 in the data set with Huh7 cells (setting [3]) was 26.6 µM.
Regarding `CCOC(=O)c1sc(Nc2ncccn2)nc1-c1cc(C)ccn1` [Entry 35], the values for the CC50 at 72 h in data set [1] and in data set [2] were 39.2 µM and 37.2 µM, respectively. The CC50 in the data set on Huh7 cells (setting [3]) worked out at 4.72 µM.
For `CCOC(=O)c1sc(Nc2ncccn2)nc1-c1cccc(C)n1` [Entry 36], in that order: at least 50 µM, at least 50 µM and at least 50 µM.
For the molecule `O=C(NCc1ccccc1)c1sc(Nc2ncccn2)nc1-c1ccccn1` [Entry 37], the CC50 at 72 h in data set [1] was 31.5 µM; in data set [2], at least 50 µM. Further, the CC50 in the data set on Huh7 cells (setting [3]) was 17.7 µM.
In the same order, the values of `COC(=O)c1sc(Nc2ncccn2)nc1-c1ccccn1` [Entry 38] are 38.6 µM, 29.4 µM and 1.25 µM.
Consider `CNC(=O)c1sc(Nc2ncccn2)nc1-c1ccccn1` [Entry 39], for which the CC50 at 72 h in data set [1] was 2.89 µM; in data set [2] it was 10.3 µM. In addition, the CC50 with Huh7 cells (setting [3]) was found to be 13 µM.
As to `CN(Cc1cnc2nc(N)nc(N)c2n1)c1ccc(C(=O)NC(CCC(=O)NCCOCCOCCOCCOCCOCCNC(=O)c2sc(Nc3ncccn3)nc2-c2ccccn2)C(=O)OC(C)(C)C)cc1` (stereo not drawn) [Entry 40], the CC50 at 72 h in data set [1] and in data set [2] was at least 50 µM each time. Moreover, the CC50 with Huh7 cells (setting [3]) is 34.8 µM.
For `NC(=O)c1sc(Nc2ncccn2)nc1-c1ccccn1` [Entry 41], the CC50 at 72 h was at least 50 µM in data set [1] and 26.6 µM in data set [2]. Further, the CC50 in the data set on Huh7 cells (setting [3]) is at least 50 µM.
On to `CC(=O)OCc1sc(Nc2ncccn2)nc1-c1ccccn1` [Entry 42], for which the CC50 at 72 h in data set [1] and in data set [2] was at least 50 µM in each case. Moreover, the CC50 with Huh7 cells (setting [3]) is 39.3 µM.
Consider `CCCC(=O)OCc1sc(Nc2ncccn2)nc1-c1ccccn1` [Entry 43], for which the CC50 at 72 h in data set [1] and in data set [2] was at least 50 µM in each case. Besides, the half-maximal cytotoxic concentration (CC50) in the data set on Huh7 cells (setting [3]) was 11 µM.
In turn, `Oc1cccc(Nc2nc(-c3ccccc3)cs2)c1` [Entry 45] gave a CC50 at 72 h in data set [2] of at least 50 µM. The CC50 with Huh7 cells (setting [3]) was 8 µM.
In the case of `Cc1c(Cl)cccc1Nc1nc(-c2ccccn2)cs1` [Entry 46], the CC50 in the data set with Huh7 cells (setting [3]) was 3.5 µM.

The record behind these values is patent US10087173B2, “Substituted aminothiazoles as inhibitors of cancers, including hepatocellular carcinoma, and as inhibitors of hepatitis virus replication” (BARUCH S. BLUMBERG INSTITUTE, priority 2011, dated 2018).
